Measured values as given in ChEMBL document CHEMBL3508693 (2016).

Assays:
[1] = % SPP100 (0-168h) recovered in urine following single intravenous dose of [14C] aliskiren hemifumarate at 1 mg.Kg-1 level in marmoset; format: ADME, organism-based, Callithrix jacchus; details: in vivo
CYP2C19 [2] = target: T1, CYP2C19 (Homo sapiens, UniProt P33261); assay: Inhibitory activity of 20 uM SPP100 on 1131 Pmoles of cDNA-derived CYP2C19 enzyme in microsome prepared from human lymphoblastoid cell line; format: ADME, microsomes; parameters: conc 20 uM, interact cpd conc 50 uM; details: probe (S)-mephenytoin
CYP2C19 [3] = target: T1, CYP2C19; assay: Inhibitory activity of 20 uM SPP100 on 1214 Pmoles of cDNA-derived CYP2C19 enzyme in microsome prepared from human lymphoblastoid cell line; format: ADME, microsomes; parameters: conc 20 uM, interact cpd conc 50 uM; details: probe (S)-mephenytoin (50 uM)
CYP2C19 [4] = target: T1, CYP2C19; assay: Inhibitory activity of 200 uM SPP100 on 1077 Pmoles of cDNA-derived CYP2C19 enzyme in microsome prepared from human lymphoblastoid cell line; format: ADME, microsomes; parameters: conc 200 uM, interact cpd conc 50 uM; details: probe (S)-mephenytoin (50 uM)
[5] = Effect of single oral dose of 300 mg [14C]SPP100 on ECG values studied in healthy men; format: toxicity, organism-based; details: human, in vivo
[6] = Excretion (0-168h) of radioactivity in urine following intravenous administration of [14C] aliskiren hemifumarate at 1 mg.Kg-1 level in marmoset; format: ADME, organism-based, Callithrix jacchus; details: in vivo
[7] = AUC of [14C] aliskiren hemifumarate following single oral dose of [14C] aliskiren hemifumarate at 500 mg.Kg-1 level in mouse; format: ADME, organism-based, TgRasH2, Plasma; details: in vivo
[8] = Excretion of radioactivity (0-24h) in urine following single oral dose of 500 mg.Kg-1 [14C] aliskiren hemifumarate in mouse; format: ADME, organism-based, TgRasH2; details: in vivo
[9] = Excretion of radioactivity (24-48h) in urine following single intravenous dose of 10 mg.Kg-1 [14C] aliskiren hemifumarate in mouse; format: ADME, organism-based, TgRasH2; details: in vivo
[10] = Mean excretion of radioactivity (48-72h) in urine and faeces following single intravenous dose of 10 mg.Kg-1 [14C] aliskiren hemifumarate in mouse; format: ADME, organism-based, TgRasH2, Urine/Feces; details: in vivo
[11] = Apparent Km value of metabolism of [14C] aliskiren hemifumarate studied in human liver microsome; format: ADME; details: microsomes
[12] = % of radioactivity (48h) recovered in faeces of receiver rat following duodenal infusion of radioactivity through bile from donor rat treated with single intravenous administration of 10 mg.Kg-1 [14C] aliskiren hemifumarate; format: ADME, organism-based, HAN:WIST(SPF), Feces; details: in vivo
[13] = AUC/dose (0-96h) of total radioactivity following oral administration of [14C] aliskiren hemifumarate at 100 mg.Kg-1 level in rat; format: ADME, organism-based, Albino HAN:WIST, Plasma; details: in vivo
Cytochrome P450 2J2 = target: T2, Cytochrome P450 2J2 (Homo sapiens, UniProt P51589); assay: Metabolic clearance (ul.min.nmol-1 CYP) of aliskiren hemifumarate for CYP2J2 was determined in human liver microsome incubated with [14C]SPP100 hemifumarate; format: ADME; details: microsomes
T2 sequence (P51589 whole entry): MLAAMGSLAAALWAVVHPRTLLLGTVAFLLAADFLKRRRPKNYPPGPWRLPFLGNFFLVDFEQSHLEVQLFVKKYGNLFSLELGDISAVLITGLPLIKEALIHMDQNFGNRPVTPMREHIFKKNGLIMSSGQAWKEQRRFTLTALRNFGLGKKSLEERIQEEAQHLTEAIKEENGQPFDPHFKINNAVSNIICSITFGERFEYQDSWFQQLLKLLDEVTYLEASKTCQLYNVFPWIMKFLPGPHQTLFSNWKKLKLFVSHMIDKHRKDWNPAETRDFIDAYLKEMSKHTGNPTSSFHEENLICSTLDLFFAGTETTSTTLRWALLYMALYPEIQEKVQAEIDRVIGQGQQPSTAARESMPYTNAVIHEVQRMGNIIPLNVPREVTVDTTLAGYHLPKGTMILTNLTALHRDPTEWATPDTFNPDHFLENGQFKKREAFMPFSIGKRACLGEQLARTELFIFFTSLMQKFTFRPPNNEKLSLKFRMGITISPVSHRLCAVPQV

Cytochrome P450 4F3 = target: T3, Cytochrome P450 4F3 (Homo sapiens, UniProt Q08477); assay: Metabolic clearance (ul.min.nmol-1 CYP) of aliskiren hemifumarate for CYP4F3B was determined in human liver microsome incubated with [14C]SPP100 hemifumarate; format: ADME; details: microsomes
T3 sequence (Q08477 whole entry): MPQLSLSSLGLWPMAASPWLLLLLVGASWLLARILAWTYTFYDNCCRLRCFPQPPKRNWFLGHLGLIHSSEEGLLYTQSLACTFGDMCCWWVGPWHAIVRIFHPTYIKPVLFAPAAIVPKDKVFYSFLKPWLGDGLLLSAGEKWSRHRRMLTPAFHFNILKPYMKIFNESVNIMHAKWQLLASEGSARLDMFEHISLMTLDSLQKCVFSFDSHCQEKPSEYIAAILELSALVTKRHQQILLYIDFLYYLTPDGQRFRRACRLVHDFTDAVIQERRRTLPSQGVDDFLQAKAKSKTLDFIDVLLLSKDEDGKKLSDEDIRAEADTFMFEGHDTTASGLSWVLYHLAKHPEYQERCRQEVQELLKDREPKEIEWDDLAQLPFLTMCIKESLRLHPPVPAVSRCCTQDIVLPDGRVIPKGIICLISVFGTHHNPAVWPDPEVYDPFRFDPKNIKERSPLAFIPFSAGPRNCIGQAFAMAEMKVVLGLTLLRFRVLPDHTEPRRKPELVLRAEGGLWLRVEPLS

[14] = Concentration of radioactivity in the liver following repeated oral administration of [14C] aliskiren hemifumarate at 100 mg.Kg-1 level studied at 2h after 3rd dose in rat; format: ADME, organism-based, Albino HAN:WIST; details: in vivo
[15] = Concentration of radioactivity in the brown fat following repeated oral administration of [14C] aliskiren hemifumarate at 100 mg.Kg-1 level studied at 2h after 10th dose in rat; format: ADME, organism-based, Albino HAN:WIST, Brown adipose tissue; details: in vivo
[16] = Effect of 2 week oral dosing of aliskiren hemifumarate at 50 mg.Kg-1 level on plasma creatinine level in male Callithrix jacchus; format: toxicity, organism-based; details: marmoset, 336 h
[17] = Effect of 2 week oral dosing of aliskiren hemifumarate at 50 mg.Kg-1 level on plasma magnesium level in female Callithrix jacchus; format: toxicity, organism-based; details: marmoset, 336 h
[18] = Effect of 2 week oral dosing of aliskiren hemifumarate at 100 mg.Kg-1 level on plasma magnesium level in female Callithrix jacchus; format: toxicity, organism-based; details: marmoset, 336 h
[19] = Effect of 4 week oral dietary dosing of aliskiren hemifumarate at 2000 mg.Kg-1 level on histopathology of corpora lutea in female mouse; format: toxicity, organism-based, CB6F1-TGrasH2, Corpus luteum; details: in vivo, 672 h
[20] = Tmax of aliskiren hemifumarate following 2 week oral dosing of aliskiren hemifumarate at 10 mg.Kg-1 level studied on […] in male Callithrix jacchus; format: ADME, organism-based; details: marmoset, plasma
[21] = t1/2 of aliskiren hemifumarate following 2 week oral dosing of aliskiren hemifumarate at 50 mg.Kg-1 level studied on day 1 in male Callithrix jacchus; format: ADME, organism-based; details: marmoset, plasma
[22] = AUC(0-24h) of aliskiren hemifumarate following 2 week oral dosing of aliskiren hemifumarate at 100 mg.Kg-1 level studied on day 1 in female Callithrix jacchus; format: ADME, organism-based; details: marmoset, plasma
[23] = AUCspec of aliskiren hemifumarate following 2 week oral dosing of aliskiren hemifumarate at 50 mg.Kg-1 level studied on day 1 in male Callithrix jacchus; format: ADME, organism-based, Plasma; details: marmoset, in vivo, 336 h
[24] = AUCspec of aliskiren hemifumarate following 2 week oral dosing of aliskiren hemifumarate at 50 mg.Kg-1 level studied on day 1 in female Callithrix jacchus; format: ADME, organism-based, Plasma; details: marmoset, in vivo, 336 h
[25] = Cmax (0-168h) of unlabeled aliskiren hemifumarate following single intravenous administration of aliskiren hemifumarate at 1 mg.Kg-1 level in marmoset; format: ADME, organism-based, Callithrix jacchus; details: plasma

T1 sequence (P33261 whole entry): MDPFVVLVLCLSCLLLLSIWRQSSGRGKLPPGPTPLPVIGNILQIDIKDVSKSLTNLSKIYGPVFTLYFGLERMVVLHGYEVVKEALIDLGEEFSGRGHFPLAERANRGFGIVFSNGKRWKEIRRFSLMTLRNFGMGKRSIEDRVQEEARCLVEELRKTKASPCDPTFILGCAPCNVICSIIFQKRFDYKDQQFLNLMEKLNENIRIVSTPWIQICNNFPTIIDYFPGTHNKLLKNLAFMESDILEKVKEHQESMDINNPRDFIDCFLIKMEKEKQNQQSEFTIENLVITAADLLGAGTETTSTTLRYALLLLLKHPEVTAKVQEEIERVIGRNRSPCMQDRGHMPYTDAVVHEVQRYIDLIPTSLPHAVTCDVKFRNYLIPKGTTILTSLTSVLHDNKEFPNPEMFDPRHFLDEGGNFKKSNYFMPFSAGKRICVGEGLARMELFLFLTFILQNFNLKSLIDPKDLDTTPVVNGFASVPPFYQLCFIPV

Question: Which Compound recovery [1] does the source give for `COCCCOc1cc(C[C@@H](C[C@H](N)[C@@H](O)C[C@H](C(=O)NCC(C)(C)C(N)=O)C(C)C)C(C)C)ccc1OC` here?
Answer: 3%

Question: And the inhibition at 20 µM (CYP2C19 [2])?
Answer: 5.1%

Question: What about the inhibition at 20 µM (CYP2C19 [3]) of the same compound?
Answer: -1.9%

Question: What about the inhibition at 200 µM (CYP2C19 [4]) of the same compound?
Answer: 9.6%

Question: For `COCCCOc1cc(C[C@@H](C[C@H](N)[C@@H](O)C[C@H](C(=O)NCC([14CH3])([14CH3])C(N)=O)C(C)C)C(C)C)ccc1OC.O=C(O)/C=C/C(=O)O`, which ECG [5] is on record?
Answer: OUTCOME = ECG findings were all considered as normal

Question: What about the Radiolabel recovery [6] of the same compound?
Answer: 4.04%

Question: And the AUC [7]?
Answer: 18.3 µM·h

Question: What about the Radiolabel recovery [8] of the same compound?
Answer: 0.47%

Question: What about the Radiolabel recovery [9] of the same compound?
Answer: 9.49%

Question: What about the Radiolabel recovery [10] of the same compound?
Answer: 0.9%

Question: And the Km [11]?
Answer: 43.8 µM

Question: What about the Radiolabel recovery [12] of the same compound?
Answer: 26.6%

Question: And the AUC normalised [13]?
Answer: 0.054 (umol.h/L)/(mg/kg)

Question: And the AUC normalised ([13]; iv, 10 mg/kg)?
Answer: 0.81 (umol.h/L)/(mg/kg)

Question: What about the CL (Cytochrome P450 2J2) of the same compound?
Answer: 10.6 µL·min/nmol

Question: And the CL (Cytochrome P450 4F3)?
Answer: 24 µL·min/nmol

Question: What about the Radiolabel recovery [14] of the same compound?
Answer: OUTCOME = Detected

Question: What about the Radiolabel recovery [15] of the same compound?
Answer: OUTCOME = Detected

Question: For `COCCCOc1cc(C[C@@H](C[C@H](N)[C@@H](O)C[C@H](C(=O)NCC(C)(C)C(N)=O)C(C)C)C(C)C)ccc1OC.COCCCOc1cc(C[C@@H](C[C@H](N)[C@@H](O)C[C@H](C(=O)NCC(C)(C)C(N)=O)C(C)C)C(C)C)ccc1OC.O=C(O)/C=C/C(=O)O` [ALISKIREN FUMARATE], which CREAT_CHANGE_BY [16] is on record?
Answer: 130%

Question: And the “Plasma magnesium_CHANGE_BY” value [17]?
Answer: 130%

Question: What about the “Plasma magnesium_CHANGE_BY” value [18] of the same compound?
Answer: 130%

Question: And the “Change in corpora lutea” value [19]?
Answer: OUTCOME = Absence of corpora lutea. No animals died during the study.

Question: And the Tmax [20]?
Answer: 2 h

Question: What about the half-life [21] of the same compound?
Answer: 7.37 h

Question: What about the AUC(0-t) at 24 h [22] of the same compound?
Answer: 84000 ng·h/mL

Question: What about the AUC normalised [23] of the same compound?
Answer: 1.16 ((ug.h.ml-1)/(mg/kg)

Question: What about the AUC normalised [24] of the same compound?
Answer: 1.12 ((ug.h.ml-1)/(mg/kg)

Question: And the Cmax [25]?
Answer: 14.2 µM
